# Patent EP2257297B1, “COMPOUNDS FOR USE IN THE TREATMENT OF ACNE, SEBORRHOEA AND SEBHORROEIC DERMATITIS, OR FOR REDUCING SEBUM SECRETION” (priority 2008, dated 2009)
# Molecular target: T1, human MC5R (Homo sapiens, UniProt P33032)
# T1 construct: purchased Perkin Elmer RBXMC5M400UA
# Assay: Human MC5R radioligand binding assay ([125I] NDP-MSH displacement, hMC5R membranes)
# Details: not given
# Method: After incubation for 10 mins the phosphate buffer containing the iodine was added to NDP-MSH (10 ul at 1 mg/mL) in a separate eppendorf tube. This was incubated for a further 10 mins.
# Resuspended membranes were kept on ice until they were added to the wells of the plate.
# Assays were performed in 96 well polypropylene plates. […] This was incubated for 1 hr at 37 °C. Non-specific binding was determined with […] NDP-MSH. Plates were filtered using a Tomtec cell harvester with GF/A filters (Wallac) (presoaked in 0.6% polyethylenimine) and washed three times with 1.0 mL ice-cold wash buffer (the above incubation buffer without 1,10-phenanthroline and Complete™ protease inhibitor tablet). The filters were dried in a 37 °C oven, placed in a sample bag and 5 mL Betaplatescint (Wallac) was added. Prepared filters were counted in cassettes in a Microbeta Trilux (Wallac) for 1 min. […] Data analysis was performed using GraphPad Prism 4, employing competition binding with a single site model and a fixed Hill coefficient. The following equation was used: Y = Bottom + (Top-Bottom)/1/10^(X-logEC50), where X = log(concentration) and Y = binding to fit the data.
# T1 sequence (P33032 whole entry): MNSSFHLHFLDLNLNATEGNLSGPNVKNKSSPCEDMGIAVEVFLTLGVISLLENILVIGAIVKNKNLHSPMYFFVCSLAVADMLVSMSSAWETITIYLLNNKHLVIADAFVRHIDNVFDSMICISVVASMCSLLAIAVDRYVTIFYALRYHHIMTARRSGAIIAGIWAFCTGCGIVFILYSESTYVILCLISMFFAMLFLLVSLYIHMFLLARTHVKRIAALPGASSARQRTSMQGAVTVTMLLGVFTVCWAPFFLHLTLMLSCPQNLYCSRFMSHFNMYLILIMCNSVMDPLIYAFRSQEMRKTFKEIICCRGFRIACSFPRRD
row,SMILES,IC50 [µM]
1,"CC[C@H](CN1CC[C@@H](CNC(=O)c2ccc(Cl)c(Cl)c2)N[C@@H](CCN)C1=O)C(C)C (racemic) [Compound 490, N-(((3S,5S)-3-(2-aminoethyl)-1-((S)-2-ethyl-3-methylbutyl)-2-oxo-1,4-diazepan-5-yl)methyl)-3,4-dichlorobenzamide]",< 10

# Same assay, conditions: hMC5R assay as in Example 102; compounds tested as trifluoroacetate or hydrochloride salts, or as free base
row,SMILES,IC50 [µM]
1,"O=C(NCC[C@@H]1CCN(CC(c2ccccc2)c2ccccc2)C(=O)[C@H](CCN2CCCCC2)N1)c1ccccc1 [Compound 311, N-(2-((3S,5R)-1-(2,2-diphenylethyl)-2-oxo-3-(2-(piperidin-1-yl)ethyl)-1,4-diazepan-5-yl)ethyl)benzamide]",< 10
2,"O=C(/C=C/c1ccc(Cl)cc1)NC[C@@H]1CCN(Cc2cc(Cl)cc(Cl)c2)C(=O)[C@H](CN2CCCCC2)N1 [Compound 368, (E)-3-(4-chlorophenyl)-N-(((3S,5S)-1-(3,5-dichlorobenzyl)-2-oxo-3-(piperidin-1-ylmethyl)-1,4-diazepan-5-yl)methyl)acrylamide]",< 0.1
3,"NCCCC[C@@H]1N[C@H](CNC(=O)c2cccc3ccccc23)CCN(Cc2ccc3ccccc3c2)C1=O [Compound 124, N-(((3S,5S)-3-(4-aminobutyl)-1-(naphthalen-2-ylmethyl)-2-oxo-1,4-diazepan-5-yl)methyl)-1-naphthamide]",< 10
4,"Cc1ccccc1/C=C/C(=O)NC[C@@H]1CCN(CC(c2ccccc2)c2ccccc2)C(=O)[C@H](CCCNC(=N)N)N1 [Compound 195, (E)-N-(((3S,5S)-1-(2,2-diphenylethyl)-3-(3-guanidinopropyl)-2-oxo-1,4-diazepan-5-yl)methyl)-3-o-tolylacrylamide]",< 0.1
5,"O=C(/C=C/c1ccc(Cl)cc1)NC[C@@H]1CCN(CC(c2ccccc2)c2ccccc2)C(=O)[C@H](CCNC(=O)C2CCCCC2)N1 [Compound 306, N-(2-((2S,7S)-7-(((E)-3-(4-chlorophenyl)acrylamido)methyl)-4-(2,2-diphenylethyl)-3-oxo-1,4-diazepan-2-yl)ethyl)cyclohexanecarboxamide]",< 1
6,"N=C(N)NCCC[C@@H]1N[C@H](CNC(=O)c2ccc3[nH]cnc3c2)CCN(CC(c2ccccc2)c2ccccc2)C1=O [Compound 149, N-(((3S,5S)-1-(2,2-diphenylethyl)-3-(3-guanidinopropyl)-2-oxo-1,4-diazepan-5-yl)methyl)-1H-benzo[d]imidazole-5-carboxamide]",< 10
7,"NC[C@@H]1N[C@H](CNC(=O)c2ccc3ccccc3c2)CCN(Cc2cc(Cl)cc(Cl)c2)C1=O [Compound 365, N-(((3S,5S)-3-(aminomethyl)-1-(3,5-dichlorobenzyl)-2-oxo-1,4-diazepan-5-yl)methyl)-2-naphthamide]",< 1
8,"NCCC[C@@H]1N[C@H](CNC(=O)c2ccc(-n3cccc3)cc2)CCN(CC(c2ccccc2)c2ccccc2)C1=O [Compound 238, N-(((3S,5S)-3-(3-aminopropyl)-1-(2,2-diphenylethyl)-2-oxo-1,4-diazepan-5-yl)methyl)-4-(1H-pyrrol-1-yl)benzamide]",< 0.1
9,"CCC(CC)CN1CC[C@@H](CNC(=O)c2ccc(Cl)c(Cl)c2)N[C@@H](CCN2CCCCC2)C1=O [Compound 349, 3,4-dichloro-N-(((3S,5S)-1-(2-ethylbutyl)-2-oxo-3-(2-(piperidin-1-yl)ethyl)-1,4-diazepan-5-yl)methyl)benzamide]",< 0.1
10,"Cc1c(C(=O)NC[C@@H]2CCN(CC(c3ccccc3)c3ccccc3)C(=O)[C@H](CCCNC(=N)N)N2)cnn1-c1ccccc1 [Compound 186, N-(((3S,5S)-1-(2,2-diphenylethyl)-3-(3-guanidinopropyl)-2-oxo-1,4-diazepan-5-yl)methyl)-5-methyl-1-phenyl-1H-pyrazole-4-carboxamide]",< 0.1
11,"Cc1ccc(C(=O)NC[C@@H]2CCN(CC(c3ccccc3)c3ccccc3)C(=O)[C@H](CCN3CCCCC3)N2)cc1C [Compound 285, N-(((3S,5S)-1-(2,2-diphenylethyl)-2-oxo-3-(2-(piperidin-1-yl)ethyl)-1,4-diazepan-5-yl)methyl)-3,4-dimethylbenzamide]",< 0.1
12,"N=C(N)NCCC[C@@H]1N[C@H](CNC(=O)c2ccc3cc(N)ccc3c2)CCN(CC(c2ccccc2)c2ccccc2)C1=O [Compound 218, 6-amino-N-(((3S,5S)-1-(2,2-diphenylethyl)-3-(3-guanidinopropyl)-2-oxo-1,4-diazepan-5-yl)methyl)-2-naphthamide]",< 10
13,"NCCCC[C@@H]1N[C@H](CNC(=O)c2ccc3ccccc3c2)CCN(Cc2ccc3ccccc3c2)C1=O [Compound 122, N-(((3S,5S)-3-(4-aminobutyl)-1-(naphthalen-2-ylmethyl)-2-oxo-1,4-diazepan-5-yl)methyl)-2-naphthamide]",< 1
14,"O=C(NC[C@@H]1CCN(CC(c2ccccc2)c2ccccc2)C(=O)[C@H](CCCN2CCCCC2)N1)c1ccc(Cl)c(Cl)c1 [Compound 271, 3,4-dichloro-N-(((3S,5S)-1-(2,2-diphenylethyl)-2-oxo-3-(3-(piperidin-1-yl)propyl)-1,4-diazepan-5-yl)methyl)benzamide]",< 0.1
15,"COc1cc(C(=O)NC[C@@H]2CCN(CC(c3ccccc3)c3ccccc3)C(=O)[C@H](CCCNC(=N)N)N2)c(OC)c2ccccc12 [Compound 215, N-(((3S,5S)-1-(2,2-diphenylethyl)-3-(3-guanidinopropyl)-2-oxo-1,4-diazepan-5-yl)methyl)-1,4-dimethoxy-2-naphthamide]",< 1
16,"O=C(NC[C@@H]1CCN(CC(c2ccccc2)c2ccccc2)C(=O)[C@H](CCN2CCCCC2)N1)c1ccc(Cl)c(Cl)c1 [Compound 284, 3,4-dichloro-N-(((3S,5S)-1-(2,2-diphenylethyl)-2-oxo-3-(2-(piperidin-1-yl)ethyl)-1,4-diazepan-5-yl)methyl)benzamide]",< 0.01
17,"NCCC[C@@H]1N[C@H](CNC(=O)/C=C/c2ccc(Cl)cc2)CCN(CC(c2ccccc2)c2ccccc2)C1=O [Compound 214, (E)-N-(((3S,5S)-3-(3-aminopropyl)-1-(2,2-diphenylethyl)-2-oxo-1,4-diazepan-5-yl)methyl)-3-(4-chlorophenyl)acrylamide]",< 0.1
18,"N=C(N)NCCC[C@@H]1N[C@H](CNC(=O)/C=C/c2ccccc2Cl)CCN(CC(c2ccccc2)c2ccccc2)C1=O [Compound 189, (E)-3-(2-chlorophenyl)-N-(((3S,5S)-1-(2,2-diphenylethyl)-3-(3-guanidinopropyl)-2-oxo-1,4-diazepan-5-yl)methyl)acrylamide]",< 1
19,"N=C(N)NCCC[C@@H]1N[C@H](CNC(=O)c2ccc3ccccc3n2)CCN(CC(c2ccccc2)c2ccccc2)C1=O [Compound 116, N-(((3S,5S)-1-(2,2-diphenylethyl)-3-(3-guanidinopropyl)-2-oxo-1,4-diazepan-5-yl)methyl)quinoline-2-carboxamide]",< 1
20,"Cc1cc(C)n(-c2ccc(C(=O)NC[C@@H]3CCN(CC(c4ccccc4)c4ccccc4)C(=O)[C@H](CCCN)N3)cc2)n1 [Compound 243, N-(((3S,5S)-3-(3-aminopropyl)-1-(2,2-diphenylethyl)-2-oxo-1,4-diazepan-5-yl)methyl)-4-(3,5-dimethyl-1H-pyrazol-1-yl)benzamide]",< 1
21,"NCCCC[C@@H]1N[C@H](CNC(=O)c2ccc3ccccc3c2)CCN(Cc2cccc3ccccc23)C1=O [Compound 117, N-(((3S,5S)-3-(4-aminobutyl)-1-(naphthalen-1-ylmethyl)-2-oxo-1,4-diazepan-5-yl)methyl)-2-naphthamide]",< 1
22,"N=C(N)NCCC[C@@H]1N[C@H](CNC(=O)/C=C/c2ccc(Br)cc2)CCN(CC(c2ccccc2)c2ccccc2)C1=O [Compound 210, (E)-3-(4-bromophenyl)-N-(((3S,5S)-1-(2,2-diphenylethyl)-3-(3-guanidinopropyl)-2-oxo-1,4-diazepan-5-yl)methyl)acrylamide]",< 0.01
23,"O=C(/C=C/c1ccc(F)cc1)NC[C@@H]1CCN(CC(c2ccccc2)c2ccccc2)C(=O)[C@H](CCCNC2CCCCC2)N1 [Compound 231, (E)-N-(((3S,5S)-3-(3-(cyclohexylamino)propyl)-1-(2,2-diphenylethyl)-2-oxo-1,4-diazepan-5-yl)methyl)-3-(4-fluorophenyl)acrylamide]",< 0.01
24,"N=C(N)NCCC[C@@H]1N[C@H](CNC(=O)c2ccc(Cl)c(Cl)c2)CCN(CC(c2ccccc2)c2ccccc2)C1=O [Compound 152, 3,4-dichloro-N-(((3S,5S)-1-(2,2-diphenylethyl)-3-(3-guanidinopropyl)-2-oxo-1,4-diazepan-5-yl)methyl)benzamide]",< 0.1
25,"N=C(N)NCCC[C@@H]1N[C@H](CNC(=O)C2CCCC2)CCN(CC(c2ccccc2)c2ccccc2)C1=O [Compound 151, N-(((3S,5S)-1-(2,2-diphenylethyl)-3-(3-guanidinopropyl)-2-oxo-1,4-diazepan-5-yl)methyl)cyclopentanecarboxamide]",< 10
26,"CN(C[C@@H]1CCN(CC(c2ccccc2)c2ccccc2)C(=O)[C@H](CCCN)N1)C(=O)/C=C/c1ccc(F)cc1 [Compound 257, (E)-N-(((3S,5S)-3-(3-aminopropyl)-1-(2,2-diphenylethyl)-2-oxo-1,4-diazepan-5-yl)methyl)-3-(4-fluorophenyl)-N-methylacrylamide]",< 10

# Same assay, conditions: hMC5R binding assay as in Example 102; compounds tested as trifluoroacetate or hydrochloride salts, or as free base
row,SMILES,IC50 [µM]
1,"CC[C@@H](CN1CC[C@H](CNC(=O)c2ccc3cc(Cl)ccc3c2)N[C@@H](CCN2CCCCC2)C1=O)c1ccccc1 [Compound 583, 6-chloro-N-(((3S,5R)-2-oxo-1-((R)-2-phenylbutyl)-3-(2-(piperidin-1-yl)ethyl)-1,4-diazepan-5-yl)methyl)-2-naphthamide]",< 1
